Assay results taken from the supplement of paper PMC9663587.

Legend:
Neratinib/HKI272 = compound: CCOc1cc2ncc(C#N)c(Nc3ccc(OCc4ccccn4)c(Cl)c3)c2cc1NC(=O)/C=C/CN(C)C [Neratinib/HKI272]; experiment: GR value, 72 h; higher = faster growth (1 = untreated, <0 = killing);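 also: breast cancer and non-malignant breast epithelial lines, nine half-log doses, viable cells counted by Hoechst and LIVE/DEAD dye imaging versus time-zero plates and DMSO controls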
[1] = compound: CCc1cnn2c(NCc3ccc[n+]([O-])c3)cc(N3CCCC[C@H]3CCO)nc12; experiment: as above
THZ1 = compound: CN(C)C/C=C/C(=O)Nc1ccc(C(=O)Nc2cccc(Nc3ncc(Cl)c(-c4c[nH]c5ccccc45)n3)c2)cc1 [THZ1]; experiment: as above
BSJ-03-123 = compound: CC(=O)c1c(C)c2cnc(Nc3ccc(N4CCN(CCOCCOCCOCCNC(=O)COc5cccc6c5C(=O)N(C5CCC(=O)NC5=O)C6=O)CC4)cn3)nc2n(C2CCCC2)c1=O [BSJ-03-123]; experiment: as above
[2] = compound: CC(=O)c1c(C)c2cnc(Nc3ccc(N4CCNCC4)cn3)nc2n(C2CCCC2)c1=O; experiment: as above
[3] = compound: CCN1CCN(Cc2ccc(Nc3ncc(F)c(-c4cc(F)c5nc(C)n(C(C)C)c5c4)n3)nc2)CC1; experiment: as above
Flavopiridol [4] = compound: T1, CN1CC[C@H](c2c(O)cc(O)c3c(=O)cc(-c4ccccc4Cl)oc23)[C@H](O)C1 [Flavopiridol]; experiment: as above
THZ531 = compound: CN(C)C/C=C/C(=O)Nc1ccc(C(=O)N2CCC[C@@H](Nc3ncc(Cl)c(-c4c[nH]c5ccccc45)n3)C2)cc1 [THZ531]; experiment: as above
YKL-5-124 = compound: C=CC(=O)Nc1ccc(C(=O)Nc2[nH]nc3c2CN(C(=O)N[C@H](CN(C)C)c2ccccc2)C3(C)C)cc1 [YKL-5-124]; experiment: as above
LEE011/Ribociclib = compound: CN(C)C(=O)c1cc2cnc(Nc3ccc(N4CCNCC4)cn3)nc2n1C1CCCC1 [LEE011/Ribociclib]; experiment: as above
[5] = compound: CCN1CCN(Cc2ccc(Nc3ncc(F)c(-c4cc(F)c5nc(C)n(C(C)C)c5c4)n3)nc2)CC1; experiment: increase in dead-cell fraction, 72 h; higher = more death;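 also: breast cancer cell lines in 384-well plates, stained with Hoechst plus LIVE/DEAD far red dye and imaged, cells above an LDR intensity threshold counted dead, Hoechst-negative corpses included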
Flavopiridol [6] = compound: T1, Flavopiridol; experiment: as above

Cell Line SUM185PE has a GR value (Neratinib/HKI272; 0.0003162 µM) of 0.996 GR, a GR value (Neratinib/HKI272; 0.001 µM) of 1.05 GR and a GR value (Neratinib/HKI272; 0.003162 µM) of 0.979 GR. For the same cell line, the GR value (Neratinib/HKI272; 0.01 µM) was 0.808 GR, the GR value (Neratinib/HKI272; 0.03162 µM) was 0.839 GR and the GR value (Neratinib/HKI272; 0.1 µM) was 0.681 GR. It also gave a GR value (Neratinib/HKI272; 0.3162 µM) of 0.595 GR, a GR value (Neratinib/HKI272; 1 µM) of 0.476 GR and a GR value (Neratinib/HKI272; 3.162 µM) of 0.267 GR. For the same cell line, the GR value ([1]; 0.0001 µM) was 1.06 GR, the GR value ([1]; 0.0003162 µM) was 1.2 GR and the GR value ([1]; 0.001 µM) was 1.04 GR. For the same cell line, the GR value ([1]; 0.003162 µM) was 0.999 GR, the GR value ([1]; 0.01 µM) was 0.955 GR and the GR value ([1]; 0.03162 µM) was 0.387 GR. It also gave a GR value ([1]; 0.1 µM) of 0.227 GR, a GR value ([1]; 0.3162 µM) of 0.203 GR and a GR value ([1]; 1 µM) of 0.171 GR. The GR value (THZ1; 0.0001 µM) was 1.02 GR, the GR value (THZ1; 0.0003162 µM) was 0.945 GR and the GR value (THZ1; 0.001 µM) was 1.02 GR. For the same cell line, the GR value (THZ1; 0.003162 µM) was 0.734 GR, the GR value (THZ1; 0.01 µM) was 0.855 GR and the GR value (THZ1; 0.03162 µM) was -0.061 GR. The GR value (THZ1; 0.1 µM) was 0.0851 GR, the GR value (THZ1; 0.3162 µM) was 0.0061 GR and the GR value (THZ1; 1 µM) was -0.203 GR. It also gave a GR value (BSJ-03-123; 0.001 µM) of 0.901 GR, a GR value (BSJ-03-123; 0.003162 µM) of 0.946 GR and a GR value (BSJ-03-123; 0.01 µM) of 0.906 GR. For the same cell line, the GR value (BSJ-03-123; 0.03162 µM) was 0.922 GR, the GR value (BSJ-03-123; 0.1 µM) was 0.819 GR and the GR value (BSJ-03-123; 0.3162 µM) was 0.776 GR. It also gave a GR value (BSJ-03-123; 1 µM) of 0.799 GR, a GR value (BSJ-03-123; 3.162 µM) of 0.758 GR and a GR value (BSJ-03-123; 10 µM) of 0.649 GR. For the same cell line, the GR value ([2]; 0.0003162 µM) was 1 GR, the GR value ([2]; 0.001 µM) was 1.03 GR and the GR value ([2]; 0.003162 µM) was 0.956 GR. The GR value ([2]; 0.01 µM) was 0.996 GR, the GR value ([2]; 0.03162 µM) was 0.96 GR and the GR value ([2]; 0.1 µM) was 0.923 GR. For the same cell line, the GR value ([2]; 0.3162 µM) was 0.781 GR, the GR value ([2]; 1 µM) was 0.86 GR and the GR value ([2]; 3.162 µM) was 0.754 GR. It also gave a GR value ([3]; 0.001 µM) of 0.941 GR, a GR value ([3]; 0.003162 µM) of 0.871 GR and a GR value ([3]; 0.01 µM) of 0.877 GR. It also gave a GR value ([3]; 0.03162 µM) of 0.874 GR, a GR value ([3]; 0.1 µM) of 0.742 GR and a GR value ([3]; 0.3162 µM) of 0.691 GR. For the same cell line, the GR value ([3]; 1 µM) was 0.613 GR, the GR value ([3]; 3.162 µM) was 0.595 GR and the GR value ([3]; 10 µM) was 0.5 GR. The GR value (Flavopiridol [4]; 0.0001 µM) was 1 GR, the GR value (Flavopiridol [4]; 0.0003162 µM) was 0.883 GR and the GR value (Flavopiridol [4]; 0.001 µM) was 0.776 GR. For the same cell line, the GR value (Flavopiridol [4]; 0.003162 µM) was 0.933 GR, the GR value (Flavopiridol [4]; 0.01 µM) was 0.845 GR and the GR value (Flavopiridol [4]; 0.03162 µM) was 0.58 GR. For the same cell line, the GR value (Flavopiridol [4]; 0.1 µM) was 0.632 GR, the GR value (Flavopiridol [4]; 0.3162 µM) was 0.458 GR and the GR value (Flavopiridol [4]; 1 µM) was 0.132 GR. For the same cell line, the GR value (THZ531; 0.0001 µM) was 1.06 GR, the GR value (THZ531; 0.0003162 µM) was 1 GR and the GR value (THZ531; 0.001 µM) was 1.02 GR. The GR value (THZ531; 0.003162 µM) was 1.02 GR, the GR value (THZ531; 0.01 µM) was 1.03 GR and the GR value (THZ531; 0.03162 µM) was 1.06 GR. For the same cell line, the GR value (THZ531; 0.1 µM) was 0.851 GR, the GR value (THZ531; 0.3162 µM) was -0.187 GR and the GR value (THZ531; 1 µM) was 0.19 GR. It also gave a GR value (YKL-5-124; 0.001 µM) of 0.7 GR, a GR value (YKL-5-124; 0.003162 µM) of 0.648 GR and a GR value (YKL-5-124; 0.01 µM) of 0.517 GR. It also gave a GR value (YKL-5-124; 0.03162 µM) of 0.469 GR, a GR value (YKL-5-124; 0.1 µM) of 0.434 GR and a GR value (YKL-5-124; 0.3162 µM) of 0.474 GR. It also gave a GR value (YKL-5-124; 1 µM) of 0.496 GR, a GR value (YKL-5-124; 3.162 µM) of 0.231 GR and a GR value (YKL-5-124; 10 µM) of -0.008 GR. For the same cell line, the GR value (LEE011/Ribociclib; 0.001 µM) was 0.867 GR, the GR value (LEE011/Ribociclib; 0.003162 µM) was 1.04 GR and the GR value (LEE011/Ribociclib; 0.01 µM) was 0.798 GR. The GR value (LEE011/Ribociclib; 0.03162 µM) was 0.942 GR, the GR value (LEE011/Ribociclib; 0.1 µM) was 1 GR and the GR value (LEE011/Ribociclib; 0.3162 µM) was 0.948 GR. It also gave a GR value (LEE011/Ribociclib; 1 µM) of 0.913 GR, a GR value (LEE011/Ribociclib; 3.162 µM) of 0.832 GR and a GR value (LEE011/Ribociclib; 10 µM) of 0.846 GR. The “increase in dead-cell fraction” value ([5]; 0.001 µM) was -0.0051, the “increase in dead-cell fraction” value ([5]; 0.003162 µM) was 0.0054 and the “increase in dead-cell fraction” value ([5]; 0.01 µM) was 0.0159. The “increase in dead-cell fraction” value ([5]; 0.03162 µM) was 0.0271, the “increase in dead-cell fraction” value ([5]; 0.1 µM) was 0.0298 and the “increase in dead-cell fraction” value ([5]; 0.3162 µM) was 0.0411. The “increase in dead-cell fraction” value ([5]; 1 µM) was 0.0307, the “increase in dead-cell fraction” value ([5]; 3.162 µM) was 0.0469 and the “increase in dead-cell fraction” value ([5]; 10 µM) was 0.04. For the same cell line, the “increase in dead-cell fraction” value (Flavopiridol [6]; 0.0001 µM) was 0.0138, the “increase in dead-cell fraction” value (Flavopiridol [6]; 0.0003162 µM) was 0.0542 and the “increase in dead-cell fraction” value (Flavopiridol [6]; 0.001 µM) was 0.0183. For the same cell line, the “increase in dead-cell fraction” value (Flavopiridol [6]; 0.003162 µM) was -0.0158, the “increase in dead-cell fraction” value (Flavopiridol [6]; 0.01 µM) was 0.0161 and the “increase in dead-cell fraction” value (Flavopiridol [6]; 0.03162 µM) was 0.0472. The “increase in dead-cell fraction” value (Flavopiridol [6]; 0.1 µM) was 0.021, the “increase in dead-cell fraction” value (Flavopiridol [6]; 0.3162 µM) was -0.002 and the “increase in dead-cell fraction” value (Flavopiridol [6]; 1 µM) was 0.117.
